The results in this text go back to PMC7373191, “Escherichia coli K-12 Lacks a High-Affinity Assimilatory Cysteine Importer” (mBio, 2020).

Common to all, as to format: cell-based, Escherichia coli
In data set [1] the target is T1, (UniProt P04816+P0AD96).
T1 construct: gene livJ; native chromosomal ABC importer in whole cells; other candidate importers deleted
The data set can be described thus: inhibition of […]leucine uptake into whole cells, filtration. To be noted: read-out: 50% inhibition.

Data set [2] addresses T1, (UniProt P04816+P0AD96). In words: inhibition of […]cysteine uptake into whole cells, filtration. The note with it: read-out: 50% inhibition.
Substrate in data set [3]: N[C@@H](CS)C(=O)O
The data set can be described thus: cells, lysate or membranes. To be noted: strain ZYD214, no other amino acids, 93-s time point, 37 °C, minimal glucose medium pH 7.0, DTPA and chloramphenicol, labelled compound.

T1 sequence (P22731 whole entry, one chain of several): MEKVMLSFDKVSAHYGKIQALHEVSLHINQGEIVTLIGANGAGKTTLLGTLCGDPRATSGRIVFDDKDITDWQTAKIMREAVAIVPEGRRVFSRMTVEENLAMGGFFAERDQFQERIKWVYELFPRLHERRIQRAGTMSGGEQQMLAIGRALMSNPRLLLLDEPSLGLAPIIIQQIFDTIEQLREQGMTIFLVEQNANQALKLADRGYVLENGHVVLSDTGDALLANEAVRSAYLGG
T1 sequence (P0AEX7 whole entry, one chain of several, further chain): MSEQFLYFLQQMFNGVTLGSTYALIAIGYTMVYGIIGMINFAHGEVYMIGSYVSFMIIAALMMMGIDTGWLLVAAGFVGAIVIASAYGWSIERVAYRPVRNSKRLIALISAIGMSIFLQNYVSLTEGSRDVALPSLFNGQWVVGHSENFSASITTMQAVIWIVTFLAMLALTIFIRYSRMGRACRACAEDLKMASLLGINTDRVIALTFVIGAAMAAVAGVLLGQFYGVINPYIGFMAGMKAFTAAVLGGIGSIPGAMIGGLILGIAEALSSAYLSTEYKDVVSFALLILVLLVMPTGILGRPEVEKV
T1 sequence (P22729 whole entry, one chain of several, further chain): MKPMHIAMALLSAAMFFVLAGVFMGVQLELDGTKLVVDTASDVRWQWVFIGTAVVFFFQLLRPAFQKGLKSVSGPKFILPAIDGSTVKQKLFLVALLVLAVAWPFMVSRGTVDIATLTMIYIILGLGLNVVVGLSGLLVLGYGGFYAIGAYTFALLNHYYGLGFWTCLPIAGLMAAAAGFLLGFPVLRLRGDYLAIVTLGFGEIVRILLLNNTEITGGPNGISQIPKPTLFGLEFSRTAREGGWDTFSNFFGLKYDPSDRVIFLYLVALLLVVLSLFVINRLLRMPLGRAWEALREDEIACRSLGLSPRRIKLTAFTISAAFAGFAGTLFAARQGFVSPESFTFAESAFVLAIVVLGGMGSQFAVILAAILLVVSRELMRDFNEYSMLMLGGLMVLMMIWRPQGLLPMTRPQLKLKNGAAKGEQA
T1 sequence (P0A9S7 whole entry, one chain of several, further chain): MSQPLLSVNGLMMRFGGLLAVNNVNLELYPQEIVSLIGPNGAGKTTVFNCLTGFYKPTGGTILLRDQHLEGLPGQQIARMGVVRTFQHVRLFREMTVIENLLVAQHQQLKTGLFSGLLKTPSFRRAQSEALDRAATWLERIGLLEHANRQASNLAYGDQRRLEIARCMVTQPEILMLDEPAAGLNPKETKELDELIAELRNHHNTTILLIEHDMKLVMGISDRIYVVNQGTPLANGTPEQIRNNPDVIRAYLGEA

As for `N[C@@H](CS)C(=O)O` [cysteine], on (UniProt P04816+P0AD96) [1], the IC50 is ~400 µM.
`CC(C)C[C@H](N)C(=O)O` [leucine]: the IC50 on (UniProt P04816+P0AD96) [2] was ~2 µM.

B1: LIV system (LivJ/LivKHMGF) (Escherichia coli K-12) (protein)
chain 1: EDIKVAVVGAMSGPVAQYGDQEFTGAEQAVADINAKGGIKGNKLQIVKYDDACDPKQAVAVANKVVNDGIKYVIGHLCSSSTQPASDIYEDEGILMITPAATAPELTARGYQLILRTTGLDSDQGPTAAKYILEKVKPQRIAIVHDKQQYGEGLARAVQDGLKKGNANVVFFDGITAGEKDFSTLVARLKKENIDFVYYGGYHPEMGQILRQARAAGLKTQFMGPEGVANVSLSNIAGESAEGLLVTKPKNYDQVPANKPIVDAIKAKKQDPSGAFVWTTYAALQSLQAGLNQSDDPAEIAKYLKANSVDTVMGPLTWDEKGDLKGFEFGVFDWHANGTATDAK
chain 2: DDIKVAVVGAMSGPIAQWGDMEFNGARQAIKDINAKGGIKGDKLVGVEYDDACDPKQAVAVANKIVNDGIKYVIGHLCSSSTQPASDIYEDEGILMISPGATNPELTQRGYQHIMRTAGLDSSQGPTAAKYILETVKPQRIAIIHDKQQYGEGLARSVQDGLKAANANVVFFDGITAGEKDFSALIARLKKENIDFVYYGGYYPEMGQMLRQARSVGLKTQFMGPEGVGNASLSNIAGDAAEGMLVTMPKRYDQDPANQGIVDALKADKKDPSGPYVWITYAAVQSLATALERTGSDEPLALVKDLKANGANTVIGPLNWDEKGDLKGFDFGVFQWHADGSSTAAK
notes: native chromosomal ABC importer in whole cells; other candidate importers deleted
In the case of B1, the Michaelis-Menten constant (Km) (usually the concentration of substrate that gives half-maximal velocity) in data set [3] is 20 µM.
